Source: US20230085307A1, “PYRIDAZINONE COMPOUND AND HERBICIDE” (NISSAN CHEMICAL CORPORATION, priority 2019, published 2023)

Tests used:
[1] = test system: Japanese bulrush; experiment: Test Example 2: herbicidal activity, application during weed generation under submerged conditions (Table 17, symbol B); format: in vivo, Japanese bulrush (Schoenoplectus juncoides); settings: AAH 320 g/ha; application during weed generation, submerged conditions
Method in brief: (§1)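 Mixed weed seedlings in alluvial soil under a 4 cm water layer, greenhouse-grown at 25–30° C. Compound given as a diluted emulsion into the floodwater at the 1–2 leaf stage; response graded after three weeks.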

[2] = test system: persian speedwell; experiment: Test Example 4: herbicidal effect by soil treatment (Table 19, symbol R); format: in vivo, Persian speedwell (Veronica persica); settings: amount of applied herbicide 320 g/ha
Method in brief: (§2)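 Step 1: sow seeds in sterilized diluvial soil, cover ~1.5 cm. Step 2: spray diluted emulsion onto soil surface at predetermined rate. Step 3: greenhouse, 25–30° C, three weeks. Step 4: grade effect on each plant by earlier criteria.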

[3] = test system: persian speedwell; experiment: Test Example 5: herbicidal effect by foliage application, plastic box (Table 20, symbol R); format: in vivo, Persian speedwell (Veronica persica); settings: foliage application, AAH 320 g/ha; for R: persian speedwell, herbicidal effect (criteria 0-5): evaluated three weeks after application
Method in brief: (§3)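 Foliar spray test: emulsion formulation diluted in water to a set application rate, sprayed onto 14-day-old plants raised in diluvial soil at 25° C to 30° C under glass. Both herbicidal effect and crop effect rated visually three weeks later.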

[4] = test system: lambsquarters; experiment: Test Example 5: herbicidal effect by foliage application, plastic box (Table 20, symbol O); format: in vivo, lambsquarters (Chenopodium album); settings: foliage application, AAH 320 g/ha; for O: lambsquarters, herbicidal effect (criteria 0-5): evaluated three weeks after application
Method in brief: as §3

[5] = test system: southern crabgrass; experiment: Test Example 5: herbicidal effect by foliage application, plastic box (Table 20, symbol F); format: in vivo, southern crabgrass (Digitaria ciliaris); settings: foliage application, AAH 320 g/ha; for F: southern crabgrass, herbicidal effect (criteria 0-5): evaluated three weeks after application
Method in brief: as §3

[6] = test system: lambsquarters; experiment: Test Example 4: herbicidal effect by soil treatment (Table 19, symbol O); format: in vivo, lambsquarters (Chenopodium album); settings: amount of applied herbicide 320 g/ha
Method in brief: as §2

[7] = test system: windgrass; experiment: Test Example 4: herbicidal effect by soil treatment (Table 19, symbol L); format: in vivo, windgrass (Apera spica-venti); settings: amount of applied herbicide 320 g/ha
Method in brief: as §2

[8] = test system: Chinese sprangletop; experiment: Test Example 3: herbicidal effect by foliage application, Wagner pot (Table 18, symbol D); format: in vivo, chinese sprangletop (Leptochloa chinensis); settings: for herbicidal effect on D: Chinese sprangletop: amount of applied herbicide 320 g/ha
Method in brief: (§4)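 Plants were sown in alluvial soil held under 0.1–0.5 cm standing water and grown 14 days in a greenhouse at 25–30 °C. An emulsifiable formulation, water-diluted to the set dose, was then sprayed onto the foliage, and effects were scored three weeks later using previously defined criteria.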

[9] = test system: late watergrass; experiment: Test Example 2: herbicidal activity, application during weed generation under submerged conditions (Table 17, symbol A); format: in vivo, late watergrass (Echinochloa oryzicola); settings: AAH 320 g/ha; application during weed generation, submerged conditions
Method in brief: as §1

[10] = test system: late watergrass; experiment: Test Example 1: herbicidal activity, application before weed generation under submerged conditions (Table 16, symbol A); format: in vivo, late watergrass (Echinochloa oryzicola); settings: 320 g/ha applied herbicide
Method in brief: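 Emulsion formulation, water-diluted to set dose, was put onto the flooded surface (4 cm depth, alluvial soil) the same day weeds were sown and 2.5-leaf rice transplanted. After 3 weeks at 25-30 °C under glass, each species was rated 0 (≤5% kill) to 5 (≥90% kill).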

[11] = test system: Italian ryegrass; experiment: Test Example 5: herbicidal effect by foliage application, plastic box (Table 20, symbol K); format: in vivo, Italian ryegrass (Lolium multiflorum); settings: foliage application, AAH 320 g/ha; for K: Italian ryegrass, herbicidal effect (criteria 0-5): evaluated three weeks after application
Method in brief: as §3

[12] = test system: southern crabgrass; experiment: Test Example 4: herbicidal effect by soil treatment (Table 19, symbol F); format: in vivo, southern crabgrass (Digitaria ciliaris); settings: amount of applied herbicide 320 g/ha
Method in brief: as §2

[13] = test system: windgrass; experiment: Test Example 5: herbicidal effect by foliage application, plastic box (Table 20, symbol L); format: in vivo, windgrass (Apera spica-venti); settings: foliage application, AAH 320 g/ha; for L: windgrass, herbicidal effect (criteria 0-5): evaluated three weeks after application
Method in brief: as §3

[14] = test system: barnyard grass; experiment: Test Example 3: herbicidal effect by foliage application, Wagner pot (Table 18, symbol H); format: in vivo, barnyard grass (Echinochloa crus-galli); settings: for herbicidal effect on H: barnyard grass: amount of applied herbicide 320 g/ha
Method in brief: as §4

[15] = test system: Italian ryegrass; experiment: Test Example 4: herbicidal effect by soil treatment (Table 19, symbol K); format: in vivo, Italian ryegrass (Lolium multiflorum); settings: amount of applied herbicide 320 g/ha
Method in brief: as §2

[16] = test system: velvetleaf; experiment: Test Example 4: herbicidal effect by soil treatment (Table 19, symbol M); format: in vivo, velvetleaf (Abutilon theophrasti); settings: amount of applied herbicide 320 g/ha
Method in brief: as §2

[17] = test system: blackgrass; experiment: Test Example 4: herbicidal effect by soil treatment (Table 19, symbol J); format: in vivo, blackgrass (Alopecurus myosuroides); settings: amount of applied herbicide 320 g/ha
Method in brief: as §2

SMILES | herbicidal effect rating, B: Japanese bulrush [1] | herbicidal effect on R: persian speedwell [2] | R: persian speedwell, herbicidal effect (criteria 0-5) [3] | O: lambsquarters, herbicidal effect (criteria 0-5) [4] | F: southern crabgrass, herbicidal effect (criteria 0-5) [5] | herbicidal effect on O: lambsquarters [6] | herbicidal effect on L: windgrass [7] | herbicidal effect on D: Chinese sprangletop [8] | herbicidal effect rating, A: late watergrass [9] | Herbicidal effect on A: late watergrass (grade 0-5) [10] | K: Italian ryegrass, herbicidal effect (criteria 0-5) [11] | herbicidal effect on F: southern crabgrass [12] | L: windgrass, herbicidal effect (criteria 0-5) [13] | herbicidal effect on H: barnyard grass [14] | herbicidal effect on K: Italian ryegrass [15] | herbicidal effect on M: velvetleaf [16] | other results
COCCSCc1ccc(-c2sc3ccc(F)cc3c2-c2c(O)c(C)nn(C)c2=O)cc1 [2-327] | 2 (Herbicidal rate of 20% or more and less than 40%) | 5 (Herbicidal rate of 90% or more (almost completely withered)) | 5 (Herbicidal rate of 90% or more (almost completely withered)) | 5 (Herbicidal rate of 90% or more (almost completely withered)) | 4 (Herbicidal rate of 70% or more and less than 90%) | 4 (Herbicidal rate of 70% or more and less than 90%) | 0 (Herbicidal rate of 5% or less (almost no effect)) | 3 (Herbicidal rate of 40% or more and less than 70%) | 0 (Herbicidal rate of 5% or less (almost no effect)) | 3 (Herbicidal rate of 40% or more and less than 70%) | 4 (Herbicidal rate of 70% or more and less than 90%) | 2 (Herbicidal rate of 20% or more and less than 40%) | 5 (Herbicidal rate of 90% or more (almost completely withered)) | 5 (Herbicidal rate of 90% or more (almost completely withered)) | 4 (Herbicidal rate of 70% or more and less than 90%) | 1 (Herbicidal rate of 5% or more and less than 20%) | –
C=C(C)C(=O)Oc1c(C)nn(C)c(=O)c1-c1c(-c2ccc(OC(F)F)cc2)sc2ccc(F)cc12 [2-281] | 4 (Herbicidal rate of 70% or more and less than 90%) | 5 (Herbicidal rate of 90% or more (almost completely withered)) | 5 (Herbicidal rate of 90% or more (almost completely withered)) | 5 (Herbicidal rate of 90% or more (almost completely withered)) | 4 (Herbicidal rate of 70% or more and less than 90%) | 5 (Herbicidal rate of 90% or more (almost completely withered)) | 3 (Herbicidal rate of 40% or more and less than 70%) | 3 (Herbicidal rate of 40% or more and less than 70%) | 5 (Herbicidal rate of 90% or more (almost completely withered)) | 5 (Herbicidal rate of 90% or more (almost completely withered)) | 5 (Herbicidal rate of 90% or more (almost completely withered)) | 3 (Herbicidal rate of 40% or more and less than 70%) | 5 (Herbicidal rate of 90% or more (almost completely withered)) | 5 (Herbicidal rate of 90% or more (almost completely withered)) | 5 (Herbicidal rate of 90% or more (almost completely withered)) | 4 (Herbicidal rate of 70% or more and less than 90%) | –
COCCOC(=O)Oc1c(C)nn(C)c(=O)c1-c1c(-c2ccc(OC(F)F)cc2)sc2ccc(F)cc12 [2-295] | 3 (Herbicidal rate of 40% or more and less than 70%) | 5 (Herbicidal rate of 90% or more (almost completely withered)) | 5 (Herbicidal rate of 90% or more (almost completely withered)) | 5 (Herbicidal rate of 90% or more (almost completely withered)) | 4 (Herbicidal rate of 70% or more and less than 90%) | 5 (Herbicidal rate of 90% or more (almost completely withered)) | – | 4 (Herbicidal rate of 70% or more and less than 90%) | 5 (Herbicidal rate of 90% or more (almost completely withered)) | 4 (Herbicidal rate of 70% or more and less than 90%) | 5 (Herbicidal rate of 90% or more (almost completely withered)) | 5 (Herbicidal rate of 90% or more (almost completely withered)) | 5 (Herbicidal rate of 90% or more (almost completely withered)) | 5 (Herbicidal rate of 90% or more (almost completely withered)) | 5 (Herbicidal rate of 90% or more (almost completely withered)) | 4 (Herbicidal rate of 70% or more and less than 90%) | herbicidal effect on J: blackgrass [17]: 4 (Herbicidal rate of 70% or more and less than 90%)
C=CCOc1ccccc1-c1sc2ccccc2c1-c1c(O)c(C)nn(C)c1=O [1-110] | 2 (Herbicidal rate of 20% or more and less than 40%) | – | – | – | – | – | – | – | 3 (Herbicidal rate of 40% or more and less than 70%) | 3 (Herbicidal rate of 40% or more and less than 70%) | – | – | – | – | – | – | herbicidal effect rating, J: blackgrass [17]: 2 (Herbicidal rate of 20% or more and less than 40%); herbicidal effect rating, R: persian speedwell [2]: 3 (Herbicidal rate of 40% or more and less than 70%); R: persian speedwell, herbicidal effect ([3]; three weeks after application): 5 (Herbicidal rate of 90% or more (almost completely withered)); O: lambsquarters, herbicidal effect ([4]; three weeks after application): 0 (Herbicidal rate of 5% or less (almost no effect)); F: southern crabgrass, herbicidal effect ([5]; three weeks after application): 4 (Herbicidal rate of 70% or more and less than 90%); herbicidal effect rating, O: lambsquarters [6]: 0 (Herbicidal rate of 5% or less (almost no effect)); herbicidal effect on D (Chinese sprangletop), rating 0-5 ([8]; 320 g/ha): 3 (Herbicidal rate of 40% or more and less than 70%); K: Italian ryegrass, herbicidal effect ([11]; three weeks after application): 0 (Herbicidal rate of 5% or less (almost no effect)); herbicidal effect rating, F: southern crabgrass [12]: 3 (Herbicidal rate of 40% or more and less than 70%); L: windgrass, herbicidal effect ([13]; three weeks after application): 3 (Herbicidal rate of 40% or more and less than 70%); herbicidal effect on H (barnyard grass), rating 0-5 ([14]; 320 g/ha): 4 (Herbicidal rate of 70% or more and less than 90%); herbicidal effect rating, K: Italian ryegrass [15]: 2 (Herbicidal rate of 20% or more and less than 40%); herbicidal effect rating, M: velvetleaf [16]: 1 (Herbicidal rate of 5% or more and less than 20%)
